Consider two compounds from patent US20220054524A1, “NEW CONJUGATED NUCLEIC ACID MOLECULES AND THEIR USES” (ONXEO, priority 2018, published 2022).

Holding throughout (type): cell-based
The test system of experiment [1] is MDA-MB-231 cells. The experiment is described as follows: Drug-induced DNA damage (γH2AX) by flow cytometry and immunofluorescence. The conditions noted are these: MDA-MB-231, 5 μM, 48 h. As for the experimental part: (§1) Cell cultures were performed with the triple negative breast cancer cell line MDA-MB-231. Cells were grown in complete L15 Leibovitz medium and maintained at 37° C. in a humidified atmosphere at 0% Co2.
For immunostaining, cells are seeded on cover slips (Menzel, Braunschweig, Germany) at a concentration of 5×10^5 cells and incubated at 37° C. during 1 day. Cells are then treated with olaparib (5 μM)+/−OX401 (5 μM). 48 h after treatment, cells are fixed for 20 min in 4% paraformaldehyde/Phosphate-Buffered Saline (PBS 1×), permeabilized in 0.5% Triton X-100 for 10 min, blocked with 2% bovine serum albumin/PBS 1× and incubated with primary antibody for 1 h at 4° C. All secondary antibodies were used at a dilution of 1/200 for 45 min at Room Temperature (RT), and DNA was stained with 4′, 6-diamidino-2-phenylindole (DAPI). […]
Cells were treated with OX401 (5 μM) or Olaparib (5 μM) for 48 hours and then fixed and permeabilized with cold (−20° C.) 70% ethanol for at least 2 hours. […] Fluorescence intensities were determined with a Guava EasyCyte cytometer (Luminex). Data were analyzed using FlowJo software (Tree Star, Calif.).

For experiment [2], the system named is homologous recombination repair pathway. The experiment is described as follows: Homologous recombination pathway activity (Rad51 foci). Particulars: MDA-MB-231, olaparib 5 μM alone, 48 h. As for the experimental part: as §1
For immunostaining, cells are seeded on cover slips (Menzel, Braunschweig, Germany) at a concentration of 5×10^5 cells and incubated at 37° C. during 1 day. Cells are then treated with olaparib (5 μM)+/−OX401 (5 μM). 48 h after treatment, cells are fixed for 20 min in 4% paraformaldehyde/Phosphate-Buffered Saline (PBS 1×), permeabilized in 0.5% Triton X-100 for 10 min, blocked with 2% bovine serum albumin/PBS 1× and incubated with primary antibody for 1 h at 4° C. All secondary antibodies were used at a dilution of 1/200 for 45 min at Room Temperature (RT), and DNA was stained with 4′, 6-diamidino-2-phenylindole (DAPI). The following antibodies were used: primary monoclonal mouse anti-phospho-H2AX (Millipore, Guyancourt, France), anti-Rad51 rabbit antibody (Merk Millipore, Darmstadt, Allemagne), secondary goat anti-mouse IgG conjugated with Alexa-633 (Molecular Probes, Eugene, Oreg., USA) and secondary goat anti-rabbit IgG conjugated with Alexa-488 (Molecular Probes, Eugene, Oreg., USA).

Experiment [3] concerns U937 cells. The experiment is described as follows: Selection of acquired resistance by repeated treatment cycles. Here is the method:
Cell cultures were performed with the lymphoma cell line U937. Cells were grown in complete RPMI medium supplemented with 10% FBS and 1% Penicillin/Streptomycin and maintained at 37° C. in a humidified atmosphere at 5% CO2. This cell line was chosen according to its high sensitivity to both OX401 and talazoparib. For repeated cycles of the treatment to select resistance, U937 cells were seeded at appropriate densities (2.10^5 cells/mL) and incubated 24 h at 37° C. before addition of the drug at doses corresponding to 10-20% survival compared to non-treated cells. Resistances were selected under 2 μM talazoparib or 1.5 μM OX401. Cells were harvested on day 4 after treatment, washed, and counted after staining with 0.4% trypan blue (Eve™ counting slides, NanoEnTek). After counting, cells were seeded in appropriate culture plates, and allowed to recover (drug free period) for 3 to 7 days. Another cycle of treatment/recovery was then started for up to 4 cycles.

The test system of experiment [4] is U937 parental cells. In words: XTT survival, U937 parental cells. Particulars: Homo sapiens, U-937, 96 h, 4 days. As for the experimental part:
(§2) Cell cultures were performed with the lymphoma cell line U937. Cells were grown in complete RPMI medium supplemented with 10% FBS and 1% Penicillin/Streptomycin and maintained at 37° C. in a humidified atmosphere at 5% CO2. This cell line was chosen according to its high sensitivity to both OX401 and talazoparib. To assess the acquired resistances irreversibility, U937 parental or resistant cells were seeded in 96 well-plates (2.10^4 cells/well) and treated with increasing concentrations of talazoparib for 4 days. Following drug exposure, cell survival was measured using the XTT assay (Sigma Aldrich). Briefly, the XTT solution was added directly to each well containing cell culture and the cells incubated for 5 hours at 37° C. before reading the absorbance at 490 nm and 690 nm using a microplate reader (BMG Fluostar, Galaxy). Cell survival was calculated as the ratio of living treated cells to living mock-treated cells. The IC50 (which represents the dose at which 50% of the cells are viable) was calculated by a non-linear regression model using GraphPad Prism software (version 5.04) by plotting the percentage viability against the Log of the drug concentration on each cell line.

Experiment [5] deals with Ta11, Ta12 and Ta13 resistant populations. In words: XTT survival, talazoparib-resistant U937 populations. The conditions noted are these: Homo sapiens, U-937, 96 h, 4 days. Here is the method:
as §2

Each structure is given as a SMILES string. A value given as a limit tells only on which side of the number the result lay.

Regarding `O=C(c1cc(Cc2n[nH]c(=O)c3ccccc23)ccc1F)N1CCN(C(=O)C2CC2)CC1` [olaparib], the “γH2AX DSB biomarker (double-strand breaks accumulation)” value in experiment [1] is given as “high phosphorylation of histone H2AX”. Moreover, in experiment [2], the “γH2AX and Rad51 foci” value is “accumulation of γH2AX Foci that co-localize with Rad51 foci”.
In the case of `Cn1ncnc1[C@H]1c2n[nH]c(=O)c3cc(F)cc(c23)N[C@@H]1c1ccc(F)cc1` [talazoparib], in experiment [3] (U937, talazoparib 2 μM), the “Cell survival after the first cycle” value was determined as 10%. In addition, in experiment [3] (U937, talazoparib 2 μM or OX401 1.5 μM, cycles of treatment), the “Cell growth during drug-free amplification periods” value is “recovered”. In addition, the “Cell survival after the forth cycle of treatment” value in experiment [3] (U937, talazoparib 2 μM, 33 days after treatment start) is “more than 50%”. The IC50 was 2000 nM in experiment [4] and above 4000 nM in experiment [5].
